# Measured values: PMC11739737 (Clinical Pharmacology and Therapeutics, 2024)
# Like-named read-outs stand apart in the source and are kept apart here. Marks after values point to notes of the source that are not given here.
# Assays:
# [1] = assay type: in vivo, human; conditions: for Cmax: geometric mean (geometric %CV); for half-life: half‐life after T max
# recombinant NNMT protein = target: T1, recombinant NNMT protein (Homo sapiens, UniProt P40261); assay: NNMT activity assay; assay type: biochemical; conditions: nicotinamide 100 μM, 37°C, 6 min
# T1 sequence (P40261 1-264): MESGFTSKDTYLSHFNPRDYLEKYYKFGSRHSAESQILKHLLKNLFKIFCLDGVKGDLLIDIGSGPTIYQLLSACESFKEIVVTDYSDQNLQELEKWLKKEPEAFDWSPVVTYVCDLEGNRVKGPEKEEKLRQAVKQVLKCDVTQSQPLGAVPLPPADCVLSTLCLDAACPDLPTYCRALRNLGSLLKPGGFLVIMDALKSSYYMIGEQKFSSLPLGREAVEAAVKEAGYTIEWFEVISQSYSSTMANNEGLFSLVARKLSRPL
# OCT2 and MATE1/2-K [2] = assay: clinical; conditions: male, human, in vivo, geometric mean; for AUC(0-t): AUC0–8hour; for CL renal: CLr (0–8 h)
# OCT2 = target: T2, OCT2 (Homo sapiens, UniProt O15244); assay: Inhibition of OCT2-mediated metformin uptake in OCT2-HEK293 cells; assay type: in vitro ADME; conditions: HEK293 cells stably expressing OCT2, pH 7.4, probe metformin (10 μM)
# T2 sequence (O15244 1-555): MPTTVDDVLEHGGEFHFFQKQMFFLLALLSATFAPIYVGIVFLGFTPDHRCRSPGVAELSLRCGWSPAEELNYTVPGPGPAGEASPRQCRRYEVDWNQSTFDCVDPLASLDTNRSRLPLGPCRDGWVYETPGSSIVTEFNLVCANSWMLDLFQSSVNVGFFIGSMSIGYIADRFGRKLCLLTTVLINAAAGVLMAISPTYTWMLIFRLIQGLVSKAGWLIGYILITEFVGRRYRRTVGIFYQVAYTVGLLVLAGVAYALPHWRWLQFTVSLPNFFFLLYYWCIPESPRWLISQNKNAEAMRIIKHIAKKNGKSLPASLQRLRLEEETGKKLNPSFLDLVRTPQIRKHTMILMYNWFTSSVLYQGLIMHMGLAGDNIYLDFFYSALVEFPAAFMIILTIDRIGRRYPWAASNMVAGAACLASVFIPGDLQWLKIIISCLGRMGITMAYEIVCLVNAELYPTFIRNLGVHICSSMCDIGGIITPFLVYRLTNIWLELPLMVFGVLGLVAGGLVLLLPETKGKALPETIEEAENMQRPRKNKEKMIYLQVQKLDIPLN
# MATE1 = target: T3, MATE1 (Homo sapiens, UniProt Q96FL8); assay: Inhibition of MATE1-mediated metformin uptake in MATE1-HEK293 cells; assay type: in vitro ADME; conditions: K i for MATE1, metformin (10 μM) uptake, 37°C, MATE1-HEK; average of experiments
# T3 sequence (Q96FL8 1-570): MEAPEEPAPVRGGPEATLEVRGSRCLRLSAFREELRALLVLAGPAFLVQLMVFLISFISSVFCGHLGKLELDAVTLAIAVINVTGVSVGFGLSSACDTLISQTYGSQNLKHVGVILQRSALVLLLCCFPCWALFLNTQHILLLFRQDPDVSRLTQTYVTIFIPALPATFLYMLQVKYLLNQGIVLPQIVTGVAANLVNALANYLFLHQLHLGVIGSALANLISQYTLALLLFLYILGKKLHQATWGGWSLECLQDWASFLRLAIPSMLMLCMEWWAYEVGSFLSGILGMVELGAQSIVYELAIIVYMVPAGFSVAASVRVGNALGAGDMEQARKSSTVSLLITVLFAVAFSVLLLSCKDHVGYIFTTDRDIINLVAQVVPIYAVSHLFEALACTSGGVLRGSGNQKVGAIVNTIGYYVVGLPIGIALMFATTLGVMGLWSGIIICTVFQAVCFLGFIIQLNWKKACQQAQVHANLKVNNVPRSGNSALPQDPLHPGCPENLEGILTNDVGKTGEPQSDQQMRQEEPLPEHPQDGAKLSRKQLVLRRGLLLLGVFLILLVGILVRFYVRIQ
# MATE2‐K = MATE2‐K (Homo sapiens, UniProt Q86VL8); assay: Inhibition of MATE2‐K-mediated metformin uptake in MATE2‐K-HEK293 cells; assay type: in vitro ADME
# [3] = cited from earlier work
# OCT2 and MATE1/2‐K [4] = conditions: for fe of metformin (fraction recovered in the urine): geometric mean (geometric %CV)
# OCT2 and MATE1/2-K [5] = assay: clinical; conditions: male, human, in vivo; for AUC(0-t): AUC0–24hour, geometric mean; for Cmax: C max of metformin; for Cmax / CL renal: geometric mean (geometric %CV); for CL renal: CLr of metformin (0–24 hour)
# OCT2 and MATE1/2‐K [6] = conditions: at fifth dose of dolutegravir
# OAT1/3 = assay type: in vivo, human
# [7] = dolutegravir (fifth) + metformin
# [8] = dolutegravir (first) + metformin
# [9] = male, human, plasma, oral, 50 mg
# [10] = 50 mg, with dolutegravir 50 mg BID, fifth dose
# [11] = 50 mg, with dolutegravir 50 mg BID, first dose
# MATE2‐K, sequence (Q86VL8 1-566 isoform Q86VL8-3): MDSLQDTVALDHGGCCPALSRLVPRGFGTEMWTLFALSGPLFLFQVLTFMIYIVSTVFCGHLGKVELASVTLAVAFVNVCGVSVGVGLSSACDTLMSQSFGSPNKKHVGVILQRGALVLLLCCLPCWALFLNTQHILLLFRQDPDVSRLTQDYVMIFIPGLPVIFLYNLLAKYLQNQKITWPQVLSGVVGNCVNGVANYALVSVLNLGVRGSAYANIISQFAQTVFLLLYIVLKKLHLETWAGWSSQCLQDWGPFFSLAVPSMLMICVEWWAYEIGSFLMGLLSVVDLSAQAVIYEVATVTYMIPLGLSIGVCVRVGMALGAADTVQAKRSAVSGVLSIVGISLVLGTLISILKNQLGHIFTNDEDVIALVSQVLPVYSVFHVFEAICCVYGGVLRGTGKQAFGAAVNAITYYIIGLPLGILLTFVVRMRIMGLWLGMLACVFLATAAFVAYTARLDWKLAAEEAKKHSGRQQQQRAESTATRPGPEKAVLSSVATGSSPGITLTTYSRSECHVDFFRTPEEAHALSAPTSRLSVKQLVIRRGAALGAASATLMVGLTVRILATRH
smiles,measurement,setting,value
CN/C(=N/CCSCc1nc[nH]c1C)NC#N [Cimetidine],Cmax,"[1]; male, human, plasma, oral, 800 mg, maximum plasma concentration (C max), cimetidine 800 mg",25.7 µM
same,adverse event,"[1]; one subject, cimetidine 800 mg (Period 2), judged to have no causal relationship with the study drug",Vomiting
same,inhibition of the activity of NNMT,recombinant NNMT protein; cimetidine 20 μM,eliminated the possibility
"CN1CC(=O)NC1=N [Creatinine, creatinine]",AUC(0-t),OCT2 and MATE1/2-K [2]; baseline,641 µM·h
same,AUC(0-t),OCT2 and MATE1/2-K [2]; cimetidine 400 mg + metformin,669 µM·h
same,AUC(0-t),OCT2 and MATE1/2-K [2]; cimetidine 800 mg + metformin,689 µM·h
same,AUC(0-t),OCT2 and MATE1/2-K [2]; control (metformin alone),600 µM·h
same,AUC(0-t),OCT2 and MATE1/2-K [2]; [7],691 µM·h
same,AUC(0-t),OCT2 and MATE1/2-K [2]; [8],712 µM·h
C[C@@H]1CCO[C@H]2Cn3cc(C(=O)NCc4ccc(F)cc4F)c(=O)c(O)c3C(=O)N12 [Dolutegravir],Ki at 2 min,OCT2,290 ± 40 nM
same,Ki,MATE1,830 nM
same,Ki,MATE2‐K,2970 ± 400 nM
same,AUC,[1]; [9],209 µM·h
same,AUC(0-inf),[1]; [9],141 µM·h
same,Cmax,"[1]; male, human, plasma, oral, 50 mg, C max up to 12 hours after metformin administration, dolutegravir 50 mg BID, fifth dose",21.7 µM
same,Cmax,"[1]; male, human, plasma, oral, 50 mg, C max up to 12 hours after metformin administration, dolutegravir 50 mg BID, first dose",7.07 µM
same,half-life,"[1]; male, human, plasma, oral, 50 mg, dolutegravir 50 mg BID, fifth dose",16.6 ± 1.7 h
same,half-life,"[1]; male, human, plasma, oral, 50 mg, dolutegravir 50 mg BID, first dose",13 ± 1.1 h
same,inhibition of the activity of NNMT,recombinant NNMT protein; dolutegravir 30 μM,eliminated the possibility
same,elimination half‐life,[3],13 to 14 h
CN(C)C(=N)N=C(N)N [Metformin],decrease of CLr of metformin,OCT2 and MATE1/2‐K [4]; cimetidine 400 mg,15.5%
same,increase of AUC of metformin,OCT2 and MATE1/2‐K [4]; cimetidine 400 mg,1.7 times
same,decrease of CLr of metformin,OCT2 and MATE1/2‐K [4]; cimetidine 800 mg,42.5%
same,increase of AUC of metformin,OCT2 and MATE1/2‐K [4]; cimetidine 800 mg,2.2 times
same,increase of C max of metformin,OCT2 and MATE1/2‐K [4]; co‐administration of cimetidine 400 mg,2.1 times
same,increase of C max of metformin,OCT2 and MATE1/2‐K [4]; co‐administration of cimetidine 800 mg,2.7 times
same,decrease of CLr of metformin,OCT2 and MATE1/2‐K [4]; dolutegravir fifth dose,56.9%
same,decrease of CLr of metformin,OCT2 and MATE1/2‐K [4]; dolutegravir first dose,26.8%
same,increase of AUC of metformin,OCT2 and MATE1/2‐K [4]; fifth dose of dolutegravir,3.0 times
same,increase of C max of metformin,OCT2 and MATE1/2‐K [4]; fifth dose of dolutegravir,2.3 times
same,increase of AUC of metformin,OCT2 and MATE1/2‐K [4]; first dose of dolutegravir,1.8 times
same,increase of C max of metformin,OCT2 and MATE1/2‐K [4]; first dose of dolutegravir,1.6 times
same,fe of metformin (fraction recovered in the urine),OCT2 and MATE1/2‐K [4]; metformin 500 mg alone (control),0.649 (13.7)
same,fe of metformin (fraction recovered in the urine),OCT2 and MATE1/2‐K [4]; with cimetidine 400 mg,0.940 (13.9)***
same,fe of metformin (fraction recovered in the urine),OCT2 and MATE1/2‐K [4]; with cimetidine 800 mg,0.826 (22.1)**
same,fe of metformin (fraction recovered in the urine),"OCT2 and MATE1/2‐K [4]; with dolutegravir 50 mg BID, fifth dose",0.844 (20.7)**
same,fe of metformin (fraction recovered in the urine),"OCT2 and MATE1/2‐K [4]; with dolutegravir 50 mg BID, first dose",0.828 (20.6)**
same,AUC(0-t),OCT2 and MATE1/2-K [5]; [10],213 µM·h
same,AUC(0-t),OCT2 and MATE1/2-K [5]; [11],123 µM·h
same,Cmax,OCT2 and MATE1/2-K [5]; [10],23.8 µM
same,Cmax,OCT2 and MATE1/2-K [5]; [11],17 µM
same,CL renal,OCT2 and MATE1/2-K [5]; [10],199 mL/min
same,CL renal,OCT2 and MATE1/2-K [5]; [11],339 mL/min
same,AUC(0-t),"OCT2 and MATE1/2-K [5]; 800 mg, with cimetidine 800 mg",154 µM·h
same,Cmax,"OCT2 and MATE1/2-K [5]; 800 mg, with cimetidine 800 mg",28 µM
same,CL renal,"OCT2 and MATE1/2-K [5]; 800 mg, with cimetidine 800 mg",269 mL/min
"Cn1cnc2c(ncn2[C@@H]2O[C@H](CO)[C@@H](O)[C@H]2O)c1=N [m^1A, N1‐methyladenosine]",AUC(0-t),OCT2 and MATE1/2-K [2]; baseline,0.822 µM·h
same,AUC(0-t),OCT2 and MATE1/2-K [2]; cimetidine 400 mg + metformin,0.918 µM·h
same,AUC(0-t),OCT2 and MATE1/2-K [2]; cimetidine 800 mg + metformin,0.984 µM·h
same,AUC(0-t),OCT2 and MATE1/2-K [2]; control (metformin alone),0.791 µM·h
same,AUC(0-t),OCT2 and MATE1/2-K [2]; [7],1.12 µM·h
same,AUC(0-t),OCT2 and MATE1/2-K [2]; [8],0.977 µM·h
same,CL renal,OCT2 and MATE1/2-K [2]; baseline,188 mL/min
same,CL renal,OCT2 and MATE1/2-K [2]; cimetidine 400 mg + metformin,198 mL/min
same,CL renal,OCT2 and MATE1/2-K [2]; cimetidine 800 mg + metformin,159 mL/min
same,CL renal,OCT2 and MATE1/2-K [2]; control (metformin alone),198 mL/min
same,clearance for tubular secretion remaining (CLr minus creatinine CLr),OCT2 and MATE1/2‐K [6],29%
Cc1ncc(CO)c(C(=O)O)c1O [pyridoxic acid],magnitude of inhibition of CLr,OAT1/3; at fifth dose of dolutegravir,at most 21%
same,change in CLr,OAT1/3; with cimetidine,no change
